Source: PubChem BioAssay AID1259411 (Chemical Carcinogenesis Research Information System (CCRIS), 2018)
Activity calls are given as the source filed them. The rule behind the calls is not given here.

Test system: rodent carcinogenicity bioassays, tumor incidence
Assay: CCRIS carcinogenicity studies
Outline: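 Archive of carcinogenicity, mutagenicity, tumor promotion and tumor inhibition results drawn from journals, NCI reports and other sources, expert-reviewed; covers 1985-2011 and is no longer updated.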

CC1=CC(=C(c2ccc(N)cc2)c2ccc(N)cc2)C=CC1=N
carcinogen call (Species: HUMAN, Route: ORAL, INHALATION, DERMAL, Tumor Site: Type of Lesion: URINARY BLADDER): active; positive | carcinogen call (Species: RAT, Strain/Sex: SPRAGUE-DAWLEY/FEMALE, Route: GAVAGE, Dose: 0, 200 MG/KG BW 2/WK FOR 8 WK WITH A 1 WK REST AFTER 2 WK THEN STARTING AT 9 WK 100 MG/KG BW 2/WK FOR DURATION OF STUDY): inactive; negative | carcinogen call (Species: RAT, Strain/Sex: SPRAGUE-DAWLEY/MALE, Route: GAVAGE, Dose: 0, 200 MG/KG BW 2/WK FOR 8 WK WITH A 1 WK REST AFTER 2 WK THEN STARTING AT 9 WK 100 MG/KG BW 2/WK FOR DURATION OF STUDY): inactive; negative

Nc1ccc2cc3ccccc3cc2c1
carcinogen call (Species: HAMSTER, Strain/Sex: SYRIAN, Route: DERMAL, Dose: 4 DROPS OF 1% SOLN IN ACETONE 2/WK FOR 10 WK, 8 DROPS FOR 40 WK, 4 DROPS FOR 5 WK, Tumor Site: Type of Lesion: INTEGUMENTARY SYSTEM (SKIN): PAPILLOMA, EPIDERMAL TUMOR): active; positive | carcinogen call (Species: MOUSE, Strain/Sex: MALE,FEMALE, Route: DERMAL, Dose: 1% SATURATED SOLN IN ACETONE 2/WK (0.025 ML FOR 30 D OR 0.1 ML FOR 140 D), THEN 0.05 ML THEREAFTER, Tumor Site: Type of Lesion: INTEGUMENTARY SYSTEM (SKIN): SQUAMOUS CELL EPITHELIOMA): active; positive | carcinogen call (Species: RAT, Strain/Sex: ALBINO/MALE, Route: DERMAL, Dose: 1% IN ACETONE 2/WK FOR 34-36 WK, Tumor Site: Type of Lesion: INTEGUMENTARY SYSTEM (SKIN): SQUAMOUS CELL CARCINOMA, BASAL CELL EPITHELIOMA, FIBROSARCOMA): active; positive | carcinogen call (Species: RAT, Strain/Sex: F344/MALE,FEMALE, Route: DERMAL, Dose: 0.18 ML OF 1% SOLN IN ACETONE 2/WK FOR 180 OR 250-300 D, Tumor Site: Type of Lesion: INTEGUMENTARY SYSTEM (SKIN): SQUAMOUS CELL CARCINOMA, BASAL CELL EPITHELIOMA, FIBROSARCOMA): active; positive | carcinogen call (Species: RAT, Strain/Sex: HOLTZMAN/MALE,FEMALE, Route: DERMAL, Dose: 0.18 ML OF 1% SOLN IN ACETONE 2/WK FOR 180 OR 250-300 D, Tumor Site: Type of Lesion: INTEGUMENTARY SYSTEM (SKIN): SQUAMOUS CELL CARCINOMA, BASAL CELL EPITHELIOMA, FIBROSARCOMA): active; positive | carcinogen call (Species: RAT, Strain/Sex: LONG-EVANS/MALE,FEMALE, Route: DERMAL, Dose: 0.18 ML OF 1% SOLN IN ACETONE 2/WK FOR 180 OR 250-300 D, Tumor Site: Type of Lesion: INTEGUMENTARY SYSTEM (SKIN): SQUAMOUS CELL CARCINOMA, BASAL CELL EPITHELIOMA, FIBROSARCOMA): active; positive | carcinogen call (Species: RAT, Strain/Sex: SPRAGUE-DAWLEY/FEMALE, Route: GAVAGE, Dose: 0.05, 1.0, 2.5 MG IN 1 ML SESAME OIL 1/3 D FOR 10 D (TOTAL DOSE 0.5-25 MG), Dose: 0.05, 1.0, 2.5 MG IN 1 ML SESAME OIL 1/3 D FOR 10 D (TOTAL DOSE 0.5-25 MG), Tumor Site: Type of Lesion: MAMMARY GLAND): active; positive

O=[N+]([O-])c1ccc(-c2cscn2)o1
carcinogen call (Species: RAT, Strain/Sex: SPRAGUE-DAWLEY/FEMALE, Route: ORAL, Dose: 0, 1540 PPM IN DIET FOR 46 WK (TOTAL DOSE: 42 MMOL/RAT) (STUDY DURATION: 68 WK), Tumor Site: Type of Lesion: MAMMARY GLAND: FIBROADENOMA, FORESTOMACH: SQUAMOUS CELL CARCINOMA): active; positive
